# Source: ChEMBL document CHEMBL1201862, “PubChem BioAssay data set” (2004)
# Calls of active or inactive are those of the source. No stated cut-off is given here; in the data, actives have a measured IC50 and inactives only a lower limit.
# Target: Envelope glycoprotein gp160 (Human immunodeficiency virus 1, UniProt Q6QLK5)
# Assay: inhibitors of HIV fusion peptide binding, primary screen, biochemical, uHTS, fluorescence dequenching (AID 1986)
# Sequence of Envelope glycoprotein gp160 (Q6QLK5 whole entry, the tested form may be a part): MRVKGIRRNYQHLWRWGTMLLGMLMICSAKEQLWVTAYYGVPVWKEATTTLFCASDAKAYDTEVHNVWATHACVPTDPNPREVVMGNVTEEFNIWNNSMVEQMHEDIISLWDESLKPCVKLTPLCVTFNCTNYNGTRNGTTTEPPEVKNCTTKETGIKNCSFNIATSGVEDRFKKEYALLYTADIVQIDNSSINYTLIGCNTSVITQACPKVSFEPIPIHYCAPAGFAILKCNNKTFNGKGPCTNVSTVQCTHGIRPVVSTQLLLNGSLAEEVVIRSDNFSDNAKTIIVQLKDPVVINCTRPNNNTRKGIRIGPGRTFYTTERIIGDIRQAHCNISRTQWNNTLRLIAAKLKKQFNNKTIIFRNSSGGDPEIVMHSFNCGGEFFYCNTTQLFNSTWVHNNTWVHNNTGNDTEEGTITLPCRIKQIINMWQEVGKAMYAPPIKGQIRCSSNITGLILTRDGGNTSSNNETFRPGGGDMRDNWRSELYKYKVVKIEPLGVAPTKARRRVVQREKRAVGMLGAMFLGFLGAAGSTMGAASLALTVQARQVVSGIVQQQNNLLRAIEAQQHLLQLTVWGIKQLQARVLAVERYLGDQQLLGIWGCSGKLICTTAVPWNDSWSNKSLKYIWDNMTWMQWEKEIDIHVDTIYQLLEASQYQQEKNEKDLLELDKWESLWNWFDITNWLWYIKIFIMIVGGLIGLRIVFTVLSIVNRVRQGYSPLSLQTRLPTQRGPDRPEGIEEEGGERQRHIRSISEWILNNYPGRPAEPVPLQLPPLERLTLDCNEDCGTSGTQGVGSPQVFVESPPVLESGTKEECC
compound,measurement,value
COc1ccc(-c2coc3c(C)c4oc(=O)c(CCC(=O)O)c(C)c4cc23)cc1,IC50,41.7 µM (active)
